Reference: article PMC3511013, “Dimerization of a cell-penetrating peptide leads to enhanced cellular uptake and drug delivery” (Beilstein Journal of Organic Chemistry, 2012)
Bridge positions count the residues as written; N and C are the ends. Ends that are not written are not given here. Peptide text beside a SMILES is read from it. I, II: the chains in the order shown. * marks the point of attachment. Chlorambucil = O=C(CCCc1ccc(N(CCCl)CCCl)cc1)*

Assays:
[1] = system: MCF-7 cells; experiment: Resazurin-based cell viability assay; details: n = 2 in triplicate; for IC50: read-out: IC50 MCF-7, resazurin-based cell viability, 24 h incubation, in the presence of serum, nonlinear regression, ± spread
Protocol: Cytotoxicity was determined by means of a resazurin-based cell-viability assay. Cells were seeded in a 96-well plate, grown to subconfluency and incubated with the substances at different concentrations for 24 h in the presence of serum under standard growth conditions. For the positive control, cells were treated with 70% ethanol for 10 min. After washing, the cell viability was determined relative to untreated cells by using the In Vitro Toxicology Assay Kit from Sigma-Aldrich according to the manufacturer’s protocol. Measurement was performed fluorimetrically at 595 nm (λex = 550 nm) on a Tecan SpectraFluor Plus plate reader. Untreated cells were set to 100%. IC50 values were calculated by using nonlinear regression (sigmoidal dose–response) with GraphPad Prism. Experiments were carried out with n = 2 in triplicate.

[2] = system: HEK-293 cells; experiment: Fluorescence microscopic uptake study; type: cell-based, human; details: unfixed HEK-293, 1 µM CF-labeled peptide, 30 min, fluorescence microscopy
Protocol: (§1) For fluorescence microscopic uptake studies, cells were seeded in an 8-well ibidi plate and grown to 60–70% confluence. The cells were then incubated with CF-labeled peptides in OptiMEM for 30 min at 37 °C. Ten minutes prior to the end of incubation, the nuclei were stained by addition of Hoechst33342 nuclear dye. Finally, the solution was removed, and the cells were treated with a 150 µM trypan blue solution for 0.5 min. After washing twice with PBS, images were taken by using a Zeiss Observer Z1 fluorescence microscope equipped with an ApoTome unit using a 63× oil immersion objective.

[3] = system: MCF-7 cells; experiment: LDH release (membrane integrity) assay
Protocol: (§4) For the membrane leakage assay utilizing the Promega CytoTox-One kit, cells were seeded in a 96-well plate, grown to subconfluency, and incubated with the substances at different concentrations for 1 h in the presence of serum under standard growth conditions. Afterwards, the assay was conducted according to the manufacturer’s protocol including the provided cell lysis positive control. Measurement was performed fluorimetrically at 595 nm (λex = 550 nm) on a Tecan SpectraFluor Plus plate reader. The negative control served as blank value, and data were normalized to the positive control. Experiments were carried out with n = 2 in triplicate.

[4] = system: HEK-293 cells; experiment: LDH release (membrane integrity) assay; type: cell-based, human; details: HEK-293, 1 h incubation, elevated concentrations, CytoTox-One, n = 2 in triplicate
Protocol: Experiments were carried out with n = 2 in triplicate.

[5] = system: human adipose tissue-derived stem cells (hADSC); experiment: Fluorescence microscopic uptake study in primary cells; type: cell-based; details: 1 h
Protocol: as §1, with “The cells were then incubated with CF-labeled peptides in OptiMEM for 30 min at 37 °C.” left out

[6] = system: HT-29 cells; experiment: Resazurin-based cell viability assay; parameters: species or system human; details: n = 2 in triplicate; for IC50: resazurin-based cell viability, 24 h incubation, in the presence of serum, nonlinear regression, ± spread
Protocol: (§2) Untreated cells were set to 100%. […] Experiments were carried out with n = 2 in triplicate.

[7] = system: HEK-293 cells; experiment: Resazurin-based cell viability assay; parameters: species or system human; details: HEK-293, 24 h, concentrations up to 100 µM, n = 2 in triplicate
Protocol: as §2

[8] = system: HT-29 cells; experiment: Flow cytometric cellular uptake of carboxyfluorescein-labeled peptides; type: cell-based, human; details: 1 h, flow cytometry; for cellular uptake at 1 µM: HT-29, CF-labeled peptide 1 µM
Protocol: (§3) For peptide-uptake studies by flow cytometry, cells were seeded in a 48-well plate and grown to 60–70% confluence. After incubation at 37 °C for 1 h with 5(6)-carboxyfluorescein-labeled peptides in OptiMEM, the cells were treated with 150 µM trypan blue for 0.5 min to quench extracellular fluorescence and washed twice with PBS, trypsinized and resuspended in standard cell-culture medium. Analyses were performed on a Partec CyFlow ML flow cytometer. Cellular autofluorescence was subtracted. The experiments were carried out with n (number of experiments) = 2 in duplicate.

[9] = system: HEK-293 cells; experiment: as above; type: cell-based, human; details: 1 h, flow cytometry; for cellular uptake at 1 µM: HEK-293, CF-labeled peptide 1 µM
Protocol: as §3

[10] = system: MCF-7 cells; experiment: as above; type: cell-based, human; details: 1 h, flow cytometry; for cellular uptake at 1 µM: MCF-7, CF-labeled peptide 1 µM
Protocol: as §3

[11] = system: HT-29 cells; experiment: LDH release (membrane integrity) assay; details: HT-29, 1 h incubation
Protocol: as §4

[12] = system: HT-29 cells; details: cited from earlier work
Protocol: (§5) The effect of the dimeric sC18 on the survival of HEK-293, HT-29 and MCF-7 cells was determined by means of a resazurin-based cell viability assay.

[13] = system: MCF-7 cells; details: cited from earlier work
Protocol: as §5

[14] = 25 µM CF-labeled peptide, fluorescence microscopy

Compound: CC[C@H](C)[C@H](NC(=O)[C@H](CCCCN)NC(=O)[C@H](CC(N)=O)NC(=O)[C@H](CCCNC(=N)N)NC(=O)[C@H](Cc1ccccc1)NC(=O)[C@H](CCCCN)NC(=O)[C@H](CCCNC(=N)N)NC(=O)[C@H](CC(C)C)NC(=O)[C@H](CCCNC(=N)N)NC(=O)[C@H](CCCCNC(=O)[C@H](CCCCN)NC(=O)[C@H](CCC(=O)O)NC(=O)[C@H](CCCCN)NC(=O)[C@@H](NC(=O)[C@H](CCCCN)NC(=O)[C@H](CC(N)=O)NC(=O)[C@H](CCCNC(=N)N)NC(=O)[C@H](Cc1ccccc1)NC(=O)[C@H](CCCCN)NC(=O)[C@H](CCCNC(=N)N)NC(=O)[C@H](CC(C)C)NC(=O)[C@H](CCCNC(=N)N)NC(=O)[C@H](CCCCN)NC(=O)[C@H](CCCNC(=N)N)NC(=O)[C@H](CC(C)C)NC(=O)CN)[C@@H](C)CC)NC(=O)[C@H](CCCNC(=N)N)NC(=O)[C@H](CC(C)C)NC(=O)CN)C(=O)N[C@@H](CCCCN)C(=O)N[C@@H](CCC(=O)O)C(=O)N[C@@H](CCCCN)C(N)=O [(sC18)2] (I: H-GLRKRLRKFRNKIKEK / II: H-GLRKRLRKFRNKIKEK-NH2; amide I:C-II:4)
- cell viability ([1]; MCF-7, 24 h, resazurin, different concentrations up to 100 µM (Figure 3)): steady decrease of cell viability
- intracellular distribution pattern [2]: punctate uptake pattern
- extracellular LDH (membrane destabilization) ([3]; MCF-7, 30 µM, 1 h incubation, in the presence of serum, CytoTox-One): high levels of extracellular LDH
- membrane leakage (LDH release) [4]: only show a little membrane leakage
- intracellular distribution in primary cells [5, 14]: evenly distributed throughout the cells
- uptake into primary cells [5, 14]: bright intracellular fluorescence
- cytotoxicity judged by cell morphology ([5]; 25 µM, microscopy): no cytotoxicity
- cell viability ([6]; HT-29, 24 h, resazurin, different concentrations up to 100 µM (Figure 3)): steady decrease of cell viability
- cell viability [7]: remained unharmed
- amount taken up by HT-29 cells compared to the other cell lines ([8]; CF-labeled peptide 10 µM, versus HEK-293 and MCF-7): less than half
- cellular uptake at 1 µM ([8]; 37 °C, OptiMEM): significant uptake
- increase of intracellular fluorescence versus sC18 ([8]; HT-29, CF-labeled peptides, 37 °C, OptiMEM, trypan blue quench, n = 2 in duplicate): ≥ 10 fold
- cellular uptake at 1 µM ([9]; 37 °C, OptiMEM): significant uptake
- increase of intracellular fluorescence versus sC18 ([9]; HEK-293, CF-labeled peptides, 37 °C, OptiMEM, trypan blue quench, n = 2 in duplicate): ≥ 10 fold
- uptake rate at 1 µM compared to sC18 at 10 µM ([9]; HEK-293, CF-labeled, p ≤ 0.05): significantly higher
- cellular uptake at 1 µM ([10]; 37 °C, OptiMEM): significant uptake
- increase of intracellular fluorescence versus sC18 ([10]; MCF-7, CF-labeled peptides, 37 °C, OptiMEM, trypan blue quench, n = 2 in duplicate): ≥ 10 fold
- uptake rate at 1 µM compared to sC18 at 10 µM ([10]; MCF-7, CF-labeled, p ≤ 0.05): significantly higher
- extracellular LDH levels ([11]; in the presence of serum, CytoTox-One, compared to MCF-7): much smaller

Compound: CC[C@H](C)[C@H](NC(=O)[C@H](CCCCN)NC(=O)[C@H](CC(N)=O)NC(=O)[C@H](CCCNC(=N)N)NC(=O)[C@H](Cc1ccccc1)NC(=O)[C@H](CCCCN)NC(=O)[C@H](CCCNC(=N)N)NC(=O)[C@H](CC(C)C)NC(=O)[C@H](CCCNC(=N)N)NC(=O)[C@H](CCCCNC(=O)[C@H](CCCCN)NC(=O)[C@H](CCC(=O)O)NC(=O)[C@H](CCCCN)NC(=O)[C@@H](NC(=O)[C@H](CCCCN)NC(=O)[C@H](CC(N)=O)NC(=O)[C@H](CCCNC(=N)N)NC(=O)[C@H](Cc1ccccc1)NC(=O)[C@H](CCCCN)NC(=O)[C@H](CCCNC(=N)N)NC(=O)[C@H](CC(C)C)NC(=O)[C@H](CCCNC(=N)N)NC(=O)[C@H](CCCCN)NC(=O)[C@H](CCCNC(=N)N)NC(=O)[C@H](CC(C)C)NC(=O)CNC(=O)[C@H](CC(C)C)NC(=O)[C@H](Cc1ccccc1)NC(=O)CNC(=O)CCCc1ccc(N(CCCl)CCCl)cc1)[C@@H](C)CC)NC(=O)[C@H](CCCNC(=N)N)NC(=O)[C@H](CC(C)C)NC(=O)CNC(=O)[C@H](CC(C)C)NC(=O)[C@H](Cc1ccccc1)NC(=O)CNC(=O)CCCc1ccc(N(CCCl)CCCl)cc1)C(=O)N[C@@H](CCCCN)C(=O)N[C@@H](CCC(=O)O)C(=O)N[C@@H](CCCCN)C(N)=O [compound 3] (I: Chlorambucil-GFLGLRKRLRKFRNKIKEK / II: Chlorambucil-GFLGLRKRLRKFRNKIKEK-NH2; amide I:C-II:7)
- IC50 [1]: 8.9 ± 0.3 µM
- LDH release compared to the cymantrene conjugates ([3]; MCF-7, 1 h incubation, different concentrations (Figure 9)): equal amount of LDH release
- IC50 [6]: 26 ± 1.2 µM
- LDH release compared to the cymantrene conjugates ([11]; different concentrations (Figure 9)): equal amount of LDH release

Compound: GLRKRLRKFRNKIKEK-NH2 [sC18, reference compound]
- intracellular distribution pattern [2]: punctate uptake pattern
- uptake into primary cells [5, 14]: hardly any detectable uptake
- cellular uptake at 1 µM ([8]; 37 °C, OptiMEM): almost failed to internalize
- cellular uptake at 1 µM ([9]; 37 °C, OptiMEM): almost failed to internalize
- cellular uptake at 1 µM ([10]; 37 °C, OptiMEM): almost failed to internalize
- cell viability (previous studies) [12]: did not cause any loss of cell viability
- cell viability (previous studies) [13]: did not cause any loss of cell viability

Compound: I: KLAKLAKKLAKLAKGFLGLRKRLRKFRNKIKEK-NH2 / II: GLRKRLRKFRNKIKEK (amide I:21-II:C) [compound 4]
- IC50 [1]: 3.6 ± 1.5 µM
- IC50 [6]: 14.3 ± 1.4 µM
